Assay [1] relates to castor oil-induced diarrhea. Put plainly: Castor Oil-Induced Diarrhea in the Rat. Format: in vivo, rat (adult Charles River male rats). To be noted: po, read-out: ED50 ± S.E. (median effective dose) at 2 hours past castor oil administration. The procedure: Castor Oil-Induced Diarrhea in the Rat
Adult Charles River male rats are fasted in community cages for 24 hours prior to the test, with free access to water. The test compound is then administered intragastrically (suspended on 0.5% methyl cellulose) one hour prior to the intragastric adminstration of a dose of 1.0 ml. castor oil per rat. The rats are then observed for the presence or absence of diarrhea at hourly intervals for up to 8 hours past the castor oil adminstration. Using the method of Berkson (1953), the median effective dose (ED50) values are calculated at each hourly interval for the test compound.
The median effective dose at 2 hours past the castor oil adminstration for the following representative compounds of the present invention in the castor oil-induced diarrhea in the Rat test are: […]

The test system of assay [2] is gastronintestinal motility. Put plainly: Mouse Cecal Test (inhibition of gastrointestinal motility, charcoal in cecum). Format: in vivo, mouse (male Charles River mice). As to conditions: po, read-out: ED50 ± S.E. (median effective dose), Mouse Cecal Test. The source says: The compounds of the present invention are useful in consequence of their valuable pharmacological properties. They are, for example, potent anti-diarrheal agents as evidenced by their ability to inhibit gastronintestinal motility as set out in the following tests:
The method used for this assay is a modification of the techniques previously described by Macht and BarbaGose, J. Amer. Pharm. Ass., 20, 558 (1931), and Janssen and Jageneau, J. Pharm. Pharmacol., 9, 381 (1957). Details are as follows:
A group of six, male Charles River mice weighing 20-25 g. which have been previously fasted for 24 hours are pretreated with the test compounds administered orally as a solution in water or suspended in 0.5% methyl cellulose. A constant volume of 10 ml./kg. is employed. Thirty minutes following administration of the test compounds, the animals are given a single oral dose of charcoal which consists of 0.2 ml. per mouse of 10% charcoal suspended in 1.0% methyl cellulose. Three and a half hours after charcoal administration, the animals are sacrificed and the cecum examined for the absence or presence of charcoal on an all-or-none basis.
The median effective dose (ED50) is then calculated for each compound using the logistic method of Berkson (1953).
The median effective dose ± standard Error ED50 ± SE) for the following representative compounds of the present invention in the Mouse Cecal Test are […]

Setting [3] is: IG, test compound one hour before 1.0 ml castor oil, 2 hours past castor oil.
Where [4] appears, read: IG, test compound 30 minutes before charcoal, cecum examined 3.5 hours after charcoal.

Where a name gives a salt, the structure may show the parent alone. Read-outs that look alike come from different tables or passages of the source.

Consider `C=CCC(CC1CC2CCN1CC2)(c1ccccc1)c1ccccc1` (centres unmarked) [2-(2,2-diphenyl-4-pentenyl)-1-azabicyclo[2.2.2]octane], for which the ED50 came out at 1.13 ± 0.18 mg/kg in assay [1] (setting [3]) and 1.82 ± 0.45 mg/kg in assay [2] (setting [4]). As to `CCCCC(CC1CC2CCN1CC2)(c1ccccc1)c1ccccc1` (centres unmarked) [2-(2,2-diphenylhexyl)-1-azabicyclo[2.2.2]octane], the ED50 in assay [1] (setting [3]) was 4.57 ± 0.21 mg/kg; in assay [2] (setting [4]), 8.74 ± 3.95 mg/kg. In the case of `CC(CC1CC2CCN1CC2)(c1ccccc1)c1ccccc1` (centres unmarked) [2-(2,2-diphenylpropyl)-1-azabicyclo[2.2.2]octane], the ED50 in assay [2] (setting [4]) stood at 43.1 ± 15.5 mg/kg. Consider `CCCCCC(CC1CC2CCN1CC2)(c1ccccc1)c1ccccc1.O=C(O)/C=C\C(=O)O` (centres unmarked) [2-(2,2-diphenylheptyl)-1-azabicyclo[2.2.2]octane maleate], for which the ED50 in assay [1] (2 h) was determined as 10.2 ± 1.43 mg/kg; in assay [2] it was 5.84 ± 1.94 mg/kg. In the case of `CC(C)=CCC(CC1CC2CCN1CC2)(c1ccccc1)c1ccccc1` (centres unmarked) [2-(5-methyl-2,2-diphenylhex-4-enyl)-1-azabicyclo[2.2.2]octane], the ED50 came out at 1.74 ± 0.53 mg/kg in assay [1] (setting [3]) and 1.45 ± 0.66 mg/kg in assay [2] (setting [4]). In the case of `CCCCCCC(CC1CC2CCN1CC2)(c1ccccc1)c1ccccc1.O=C(O)/C=C\C(=O)O` (centres unmarked) [2-(2,2-diphenyloctyl)-1-azabicyclo[2.2.2]octane maleate], the ED50 in assay [2] is 20.7 ± 12.3 mg/kg. Still for that read-out and setting: as for `CCOC(=O)C1(c2ccccc2)CCN(CCC(C#N)(c2ccccc2)c2ccccc2)CC1` [Diphenoxylate . HCl, reference compound], the figure is 3.12 ± 1.29 mg/kg.
